This is an account of results in patent US9216973B2, “Insecticidal compounds” (Syngenta Participations AG, priority 2008, dated 2015).

Molecules are shown by their SMILES.

Holding throughout (assay type): in vivo
The subject of experiment [1] is Heliothis virescens (Tobacco budworm). Description: Heliothis virescens egg test on artificial diet. The settings on record: for pest or weed control at 200 ppm: 96 h, 200 ppm (concentration in well 18 ppm), eggs 0-24 h old on artificial diet, egg mortality, larval mortality, growth regulation after 4 days, read-out: control of Heliothis virescens; for effect on mortality, feeding behavior, or growth regulation: same protocol, 200 ppm. The method, then: (§1) This Example illustrates the insecticidal and acaricidal properties of compounds of formula (I). The tests were performed as follows:
(§2) Cotton leaf discs were placed on agar in a 24-well microtiter plate and sprayed with test solutions at an application rate of 200 ppm. After drying, the leaf discs were infested with 5 L1 larvae. The samples were checked for mortality, feeding behavior, and growth regulation 3 days after treatment (DAT). The following compound gave at least 80% control of Spodoptera littoralis: A1, A2, A5, A6, A7, A8, A10, A11, A12, A13, A14, A15, A16, A17, A18, A19, A21, A22, A23, A24, A25, A30, A31, A32, A33, A34, A35, A39, A40, A41 A42, A43, A44, A45, A46, A47, A48, A49, A50, A51, A53, A54, A55, A59, A60, A61, A62. Heliothis virescens (Tobacco budworm): Eggs (0-24 h old) were placed in 24-well microtiter plate on artificial diet and treated with test solutions at an application rate of 200 ppm (concentration in well 18 ppm) by pipetting. After an incubation period of 4 days, samples were checked for egg mortality, larval mortality, and growth regulation. The following compound gave at least 80% control of Heliothis virescens: A1, A2, A3, A4, A5, A6, A7, A8, A10, A11, A12, A13, A14, A15, A16, A18, A19, A21, A22, A24, A25, A30, A31, A32, A33, A34, A35, A37, A38, A39, A40, A42, A43, A44, A45, A46, A47, A48, A49, A50, A51, A55, AA57, A58, A59, A60, A61, A62. Plutella xylostella (Diamond back moth): 24-well microtiter plate (MTP) with artificial diet was treated with test solutions at an application rate of 200 ppm (concentration in well 18 ppm) by pipetting. After drying, the MTP's were infested with L2 larvae (7-12 per well). After an incubation period of 6 days, samples were checked for larval mortality and growth regulation. The following compound gave at least 80% control of Plutella xylostella: A1, A2, A5, A6, A7, A8, A9, A10, A11, A12, A13, A14, A15, A16, A17, A18, A19, A20, A21, A22, A24, A25, A30, A31, A32, A33, A34, A35, A37, A38, A39, A40, A42, A43, A44, A45, A46, A47, A48, A49, A50, A51, A52, A53, A54, A55, A57, A58, A59, A60, A61, A62, B3. Diabrotica balteata (Corn root worm): A 24-well microtiter plate (MTP) with artificial diet was treated with test solutions at an application rate of 200 ppm (concentration in well 18 ppm) by pipetting. After drying, the MTP's were infested with L2 larvae (6-10 per well). After an incubation period of 5 days, samples were checked for larval mortality and growth regulation. The following compound gave at least 80% control of Diabrotica balteata: A1, A2, A5, A6, A7, A10, A11, A12, A13, A14, A15, A16, A17, A18, A19, A21, A22, A24, A25, A30, A31, A32, A33, A34, A35, A38, A39, A40, A42, A43, A44, A45, A46, A47, A48, A49, A50, A59, A60, A61, A62. Thrips tabaci (Onion thrips): Sunflower leaf discs were placed on agar in a 24-well microtiter plate and sprayed with test solutions at an application rate of 200 ppm. After drying, the leaf discs were infested with an […] population of mixed ages. After an incubation period of 7 days, samples were checked for mortality. The following compounds gave at least 80% control of Thrips tabaci: A1, A2, A5, A6, A7, A8, A10, A12, A13, A14, A15, A16, A17, A18, A19, A21, A24, A25, A30, A31, A32, A33, A34, A35, A39, A42, A43, A44, A45, A46, A47, A48, A49, A50, A51, A53, A54, A57, A58, A59, A60, A61, A62. Tetranychus urticae (Two-spotted spider mite): Bean leaf discs on agar in 24-well microtiter plates were sprayed with test solutions at an application rate of 200 ppm. After drying, the leaf discs are infested with mite populations of mixed ages. 8 days later, discs are checked for egg mortality, larval mortality, and adult mortality. The following compound gave at least 80% control of Tetranychus urticae: A1, A2, A4, A5, A6, A7, A8, A10, A11, A12, A13, A14, A15, A16, A17, A18, A19, A20, A21, A22, A30, A31, A32, A33, A34, A35, A39, A40, A41, A42, A43, A44, A45, A46, A47, A48, A49, A50, A51, A53, A54, A55, A57, A59, A60, A61, A62.

Experiment [2] relates to Thrips tabaci (Onion thrips). Nature of the experiment: Thrips tabaci sunflower leaf disc spray test. The settings on record: for pest or weed control at 200 ppm: foliar, 168 h, 200 ppm spray on sunflower leaf discs, population of mixed ages, mortality after 7 days; for effect on mortality, feeding behavior, or growth regulation: same protocol, 200 ppm. As to the method:
as §1, §2

Experiment [3] has as its system Tetranychus urticae (Two-spotted spider mite). Description: Tetranychus urticae bean leaf disc spray test. The settings on record: for pest or weed control at 200 ppm: foliar, 192 h, 200 ppm spray on bean leaf discs, mite populations of mixed ages, egg, larval and adult mortality 8 days later, read-out: control of Tetranychus urticae; for effect on mortality, feeding behavior, or growth regulation: same protocol, 200 ppm. As to the method: as §1, §2

`Cc1cc(C2=NOC(c3cc(Cl)cc(Cl)c3)(C(F)(F)F)C2Cl)ccc1C(=O)NC1CS(=O)(=O)C1` (stereo not drawn) [A32]: the pest or weed control at 200 ppm in experiment [1], in experiment [2] and in experiment [3] was not below 80% in each case.

In the case of `Cc1cc(C2=NOC(c3cc(Cl)cc(Cl)c3)(C(F)(F)F)C2Cl)ccc1C(=O)NC1(C)CSC1` (stereo not drawn) [A33], the pest or weed control at 200 ppm in experiment [1], in experiment [2] and in experiment [3] was not below 80% throughout.

`Cc1cc(C2=NOC(c3cc(Cl)cc(Cl)c3)(C(F)(F)F)C2Cl)ccc1C(=O)NC1C[S+]([O-])C1` (stereo not drawn) [A34]: the pest or weed control at 200 ppm in experiment [1], in experiment [2] and in experiment [3] was not below 80% each time.

On to `CC1(NC(=O)c2cccc3c(C4=NOC(c5cc(Cl)cc(Cl)c5)(C(F)(F)F)C4)cccc23)CSC1` (stereo not drawn) [A36], for which the “effect on mortality, feeding behavior, or growth regulation” value in experiment [1], in experiment [2] and in experiment [3] was “little or no effect” each time.

Consider `O=C(NC1CS(=O)(=O)C1)c1ccc(C2=NOC(c3cc(Cl)cc(Cl)c3)(C(F)(F)F)C2Br)c2ccccc12` (stereo not drawn) [A42], for which the pest or weed control at 200 ppm in experiment [1], in experiment [2] and in experiment [3] was not below 80% throughout.

Regarding `CC1(NC(=O)c2ccc(C3=NOC(c4cc(Cl)cc(Cl)c4)(C(F)(F)F)C3Br)c3ccccc23)CSC1` (stereo not drawn) [A43], the pest or weed control at 200 ppm in experiment [1], in experiment [2] and in experiment [3] was not below 80% throughout.

On to `O=C(NC1C[S+]([O-])C1)c1ccc(C2=NOC(c3cc(Cl)cc(Cl)c3)(C(F)(F)F)C2Br)c2ccccc12` (stereo not drawn) [A44], for which the pest or weed control at 200 ppm in experiment [1], in experiment [2] and in experiment [3] was not below 80% throughout.

In the case of `Cc1cc(C2=NCC(c3cc(Cl)cc(Cl)c3)(C(F)(F)F)C2)ccc1C(=O)NC1CS(=O)(=O)C1` (stereo not drawn) [A46], the pest or weed control at 200 ppm in experiment [1], in experiment [2] and in experiment [3] was not below 80% each time.

With `Cc1cc(C2=NCC(c3cc(Cl)cc(Cl)c3)(C(F)(F)F)C2)ccc1C(=O)NC1(C)CSC1` (stereo not drawn) [A47], the pest or weed control at 200 ppm in experiment [1], in experiment [2] and in experiment [3] was not below 80% in each case.

As to `Cc1cc(C2=NCC(c3cc(Cl)cc(Cl)c3)(C(F)(F)F)C2)ccc1C(=O)NC1C[S+]([O-])C1` (stereo not drawn) [A48], the pest or weed control at 200 ppm in experiment [1], in experiment [2] and in experiment [3] was not below 80% in each case.

In the case of `Cc1cc(C2=NCC(c3cc(Cl)cc(Cl)c3)(C(F)(F)F)C2)ccc1C(=O)NC1CSC1` (stereo not drawn) [A49], the pest or weed control at 200 ppm in experiment [1], in experiment [2] and in experiment [3] was not below 80% in each case.

As to `Cc1cc(C2=NOC(c3cc(Cl)cc(Cl)c3)(C(F)(F)F)C2O)ccc1C(=O)NC1CS(=O)(=O)C1` (stereo not drawn) [A51], the pest or weed control at 200 ppm in experiment [1], in experiment [2] and in experiment [3] was not below 80% in each case.

Turning to `Cc1cc(C2=NOC(c3cc(Cl)cc(Cl)c3)(C(F)(F)F)/C2=N/O)ccc1C(=O)NC1(C)CSC1` (stereo not drawn) [A56], the “effect on mortality, feeding behavior, or growth regulation” value in experiment [1], in experiment [2] and in experiment [3] was “little or no effect” each time.

Regarding `Cc1cc(C2=NOC(c3cc(Cl)cc(Cl)c3)(C(F)(F)F)C2F)ccc1C(=O)NC1CS(=O)(=O)C1` (stereo not drawn) [A59], the pest or weed control at 200 ppm in experiment [1], in experiment [2] and in experiment [3] was not below 80% in each case.

With `Cc1cc(C2=NOC(c3cc(Cl)cc(Cl)c3)(C(F)(F)F)C2F)ccc1C(=O)NC1(C)CSC1` (stereo not drawn) [A60], the pest or weed control at 200 ppm in experiment [1], in experiment [2] and in experiment [3] was not below 80% throughout.

Turning to `Cc1cc(C2=NOC(c3cc(Cl)cc(Cl)c3)(C(F)(F)F)C2F)ccc1C(=O)NC1CSC1` (stereo not drawn) [A61], the pest or weed control at 200 ppm in experiment [1], in experiment [2] and in experiment [3] was not below 80% each time.

Regarding `Cc1cc(C2=NOC(c3cc(Cl)cc(Cl)c3)(C(F)(F)F)C2F)ccc1C(=O)NC1C[S+]([O-])C1` (stereo not drawn) [A62], the pest or weed control at 200 ppm in experiment [1], in experiment [2] and in experiment [3] was not below 80% in each case.
